Assays:
[1] = tested on: Liver disorder (hepatopathy) in mice; assay: Anti-hepatitis test: liver disorder (hepatopathy) in mice, carbon tetrachloride; assay type: in vivo, dyy-strain male mice; conditions: carbon tetrachloride i.p., test substance 1.0 mg/ml i.p. 3 h later, blood at 24 h, Table 1, * p < 0.05
Protocol: (1) Liver disorder (hepatopathy) in mice A group of 8 dyy-strain male mice (weighing 23 to 25 g), kept fasting from the previous day was treated by intraperitoneal injection of a 25% solution of carbon tetrachloride in olive oil at a dose of […] and thereafter allowed free access to food. Three hours after the administration of carbon tetrachloride, the mice were given a 1.0 mg/ml concentrated suspension of the test substance, as prepared in conjunction with powdered gum arabic, by intra-peritoneal injection at a dose of 0.1 ml/body weight. Twenty four hours after the administration of carbon tetrachloride, blood samples were drawn from the mice under anesthesia with ether through the abdominal descending aorta.

[2] = tested on: Isolated liver cells of rats; assay: Anti-hepatitis test: disorder of the isolated liver cells, carbon tetrachloride; assay type: cell-based; conditions: isolated rat liver cells, carbon tetrachloride vapor; test substance 0.1 mg/ml solution, 1 ml added to 2 ml; supernatant; Table 2; n = 8; * p < 0.05
Protocol: (2) Disorder of the isolated liver cells a. Carbon tetrachloride Isolated liver cells of rats were prepared by means of […] collagenase irrigation method, whereby a liver cell suspension was prepared to a concentration of 6×10^8 liver cells/mi. Into 2 ml of the suspension in an Erlenmeyer flask of a 10 ml capacity was put a test tube of about 0.5 capacity containing carbon tetrachloride to saturate the reaction system with carbon tetrachloride vapor, and after the flask was tightly stoppered, preincubation was carried out at 37° C. for 5 min. One ml of a test substance solution prepared at a concentration of 0.1 mg/ml Hunk's solution was added to the suspension of liver cells, while 1 ml of Hunk's solution was added to the control.

[3] = tested on: Isolated liver cells of rats; assay: Anti-hepatitis test: disorder of the isolated liver cells, antibody against rat liver cell membranes; assay type: cell-based; conditions: antiserum against rat liver cell membranes, test substance 0.1 mg/ml solution, 1 ml added to 2 ml, supernatant, Table 3, n = 8, * p < 0.05
Protocol: (2) Disorder of the isolated liver cells
b. Antibody against rat liver cell membranes
Isolated liver cells of rats were prepared by means of Segren's collagenase irrigation method, whereby a liver cell suspension was prepared at a concentration of 6×10^8 liver cells/mi. An Erlenmeyer flask of a 10 ml capacity in which 2 ml of the suspension had been placed was saturated with 95% oxygen, and after the flask was tightly stoppered, preincubation was carried out at 37° C. for 5 min. One ml of a test substance solution prepared at a concentration of 0.1 mg/ml Hunk's solution was added to the liver cell suspension, while 1 ml of the Hunk's solution was added to the control, followed by incubation for another 5 min, and antiserum against rat liver cell membranes (a 50-fold diluted serum) was added. A specifically determined volume of the reaction solution was pipetted out 0 and 30 min after the initiation of reaction, respectively, and immediately centrifuged under 500 g for 30 seconds, and the ALT, AST and LDH as leached out into the supernatant liquid were determined for activity by the Lippie method.

[4] = tested on: Stomach injury with hydrochloric acid/ethanol; assay: Anti-ulcer test: stomach injury with hydrochloric acid/ethanol; assay type: in vivo, male rats of KBL Wistar strain; conditions: rats; for Suppression rate: 30 min before hydrochloric acid/ethanol, ulcer length
Protocol: (1) Stomach injury with hydrochloric acid/ethanol:
Rats weighing 193 to 228 g were fasted with free access to water for 24 hours before being used in the experiment. The rats were divided into groups each consisting of 10 heads in such a way as their mean body weights were nearly uniform, treated through oral administration of hydrochloric acid/ethanol (0.15 mole hydrochloric acid solution in 80% ethanol) at a dose of 5 ml/kg body weight and sacrificed through cervical vertebrae dislocation 1 hour after administration. The stomachs were removed and treated with formalin, and individual ulcers formed in the glandula portion of the stomach were measured in length (mm), with the measured ulcer lengths being summed for each rat. The test substance was suspended in a 0.5% aqueous solution of sodium carboxymethylcellulose, and the suspension was given to the test group orally at a dose of 10 ml/kg body weight 30 min before administration of hydrochloric acid/ethanol, whereas the vehicle alone was applied to the control group.

[5] = Overall anti-hepatitis, liver-function improving and anti-ulcer activities (summary of tests)
[6] = tested on: Stomach injury through water-immersion constraint stress; assay: Anti-ulcer test: stomach injury through water-immersion constraint stress; assay type: in vivo, male rats of KBL Wistar strain; conditions: rats; for Suppression rate: 30 min before water-soaking constraint, 7 h, ulcer length, * p < 0.05
Protocol: (2) Stomach injury through water-immersion constraint stress
Rats weighing 183 to 235 g were fasted with free access to water for 24 hours before being used in the experiment. The rats were divided into groups each consisting of 10 heads in such a way as their mean body weights were nearly uniform, stress-loaded by soaking the animals as placed in a stress cage of Univ. of Tokyo type in a water tank at 23° C. up to the xiphoid and sacrificed through cervical vertebrae dislocation 7 hours later. The stomachs were removed and treated with formalin, and individual ulcers formed in the glandula portion of the stomach were measured in length (mm), with the measured ulcer lengths being summed for each rat. The test substance was suspended in a 0.5% aqueous solution of sodium carboxymethylcellulose, and the suspension was given to the test group orally at a dose of 10 ml/kg body weight 30 min before the water-soaking constraint, whereas the vehicle alone was applied to the control group.

mice = assay: Acute toxicity test; assay type: in vivo, Male, SLC:ICR (SPE) mice; conditions: oral
Protocol: Male, SLC:ICR (SPE) mice weighing 20 g, divided into groups each consisting of 5 heads, were treated by oral administration of the test compound suspended in gum arabic at doses of 1,000 mg/kg, 1,500 mg/kg and 2,500 mg/kg test compound, followed by observation for any abnormalities.

| Compound | ALT, mean ± S.D. [1] | AST, mean ± S.D. [1] | LDH, mean ± S.D. [1] | ALT, mean ± S.D. [2] | AST, mean ± S.D. [2] | ALT, mean ± S.D. [3] | AST, mean ± S.D. [3] | LDH, mean ± S.D. [3] | Suppression rate ([4]; 50 mg/kg oral) | Suppression rate ([4]; 100 mg/kg oral, * p < 0.01) | Suppression rate ([4]; 200 mg/kg oral, * p < 0.01) | UD50 ([4]; oral, hydrochloric acid/ethanol, 95% C.L. 83.4~94.3, 60 min) | anti-hepatitis, liver-function improving and anti-ulcer activities [5] | suppression against increases in activities of ALT, AST and LDH ([5]; Tables 1 to 3, as compared with the control compounds currently in use) | Suppression rate ([6]; 50 mg/kg oral) | Suppression rate ([6]; 100 mg/kg oral) | Suppression rate ([6]; 200 mg/kg oral) | UD50 ([6]; oral, water-immersion constraint stress, 95% C.L. 97.9~113, 420 min) | LD50 (mice) | deaths (mice; doses up to 2,500 mg/kg) |
| --- | --- | --- | --- | --- | --- | --- | --- | --- | --- | --- | --- | --- | --- | --- | --- | --- | --- | --- | --- | --- |
| N[C@@H](CCC(=O)N[C@@H](CS)C(=O)NCC(=O)O)C(=O)O [Glutathione] | 19423.1 ± 1042.3 IU | 9643.6 ± 3874.3 IU | 32392 ± 7906 IU | 1176.1 ± 123.7 IU | 321.7 ± 94.4 IU | 2257.8 ± 581.6 IU | 1759.4 ± 394.3 IU | 2541.1 ± 563.4 IU | – | – | – | – | – | – | – | – | – | – | – | – |
| CC1(C)[C@@H](O[C@H]2O[C@H](C(=O)O)[C@@H](O)[C@H](O)[C@H]2O[C@@H]2O[C@H](C(=O)O)[C@@H](O)[C@H](O)[C@H]2O)CC[C@]2(C)[C@H]3C(=O)C=C4[C@@H]5C[C@@](C)(C(=O)O)CC[C@]5(C)CC[C@@]4(C)[C@]3(C)CC[C@@H]12 [Glycyrrhizin] | 8339.3 ± 2420.1 IU | 8949.6 ± 4530.0 IU | 26457 ± 11086 IU | 1089.7 ± 210.2 IU | 267.8 ± 78.1 IU | 1764.8 ± 437.1 IU | 1358.4 ± 324.1 IU | 2163.1 ± 562.7 IU | – | – | – | – | – | – | – | – | – | – | – | – |
| CC(S)C(=O)NCC(=O)O (centres unmarked) [Thiopronine] | 4941.2 ± 1537.7 IU | 4884.5 ± 1097.5 IU | 26789 ± 9753 IU | 1426.9 ± 199.5 IU | 956.8 ± 219.5 IU | 1826.5 ± 479.5 IU | 1623.7 ± 432.8 IU | 2583.7 ± 634.1 IU | – | – | – | – | – | – | – | – | – | – | – | – |
| Zinc-[bis(2-aminoethanesulfonic acid).bis(sodium 2-aminoethanesulfonate)] [FTZ] | 4265.7 ± 1347.6 IU | 3215.8 ± 967.7 IU | 15865 ± 5300.8 IU | 1107.1 ± 168.8 IU | 345.7 ± 72.8 IU | 1429.5 ± 327.8 IU | 1025.8 ± 268.4 IU | 1875.3 ± 437.1 IU | 32.1% | 53.5% | 74.9% | 88.7 mg/kg | exhibits anti-hepatitis, liver-function improving and anti-ulcer activities | significantly enhanced suppression | 26.4% | 56.1% | 64.5% | 105 mg/kg | > 2,500 mg/kg | did not cause any animal to die |

Source: patent US5475028A (Zaidan Hojin Seisan Kaihatsu Kagaku Kenkyusho, priority 1992, dated 1995)
